Results published in article PMC7278776, “Multidrug Resistance Modulation Activity of Silybin Derivatives and Their Anti-Inflammatory Potential” (Antioxidants, 2020).

How the values were obtained:
[1] = set-up: method as in PMID 15465345, PMID 19138735; details: cited from earlier work
ABCA7 = ABCA7 mRNA expression (real-time PCR); assay type: cell-based, human; details: A2780/DOX, 10 µM, 48 h, without doxorubicin
Method: (§1) The A2780/DOX cell line was seeded into 5 cm Petri dishes with DMEM medium at 1 × 10^5 cell/mL. […] After 48 h of treatment, the cells were washed with PBS and harvested using the standard trypsin-EDTA procedure. The harvested cells were centrifuged (3200× g; 10 min, 4 °C). The supernatant was discarded, and the pellets were washed with 1.5 mL of cooled PBS (5400× g; 10 min, 4 °C). The washing step was repeated with 1 mL of PBS and the cells were centrifuged again (10,000× g; 3 min, 4 °C). Afterwards, the pellets were resuspended in 1 mL of Trizol (Invitrogen, Carlsbad, CA, USA) and transferred into pre-cooled RNase-free microfuge tubes. The samples were stored at −80 °C.
(§2) A Quant-iT RiboGreen RNA Assay Kit (Invitrogen) was used to determine the RNA concentration using the Infinite M200 plate reader (Tecan, Männedor, Switzerland). […]
(§3) The experiment was performed using the ViiA7 Real-Time polymerase chain reaction (PCR) System (Life Technologies, Camarillo, CA, USA) with a 384-well block. Before quantitative real-time PCR, the master mix was prepared by mixing 2 µL of 8 × diluted cDNA, 1.75 µL of RNase free water, 1 µL of 5 × HotFIREPol Probe quantitative PCR Mix Plus (Solis Biodyne, Tartu, Estonia) and 0.25 µL of specific 20 × TaqMan Gene Expression Assay (Life Technologies), giving 5 µL of final reaction volume. […] After each extension phase, the fluorescence values were acquired. […]

ABCC2 (MRP2) = experiment: ABCC2 mRNA expression (real-time PCR); assay type: cell-based, human; details: 10 µM, 48 h, without doxorubicin
Method: as §1
(§4) A Quant-iT RiboGreen RNA Assay Kit (Invitrogen) was used to determine the RNA concentration using the Infinite M200 plate reader (Tecan, Männedor, Switzerland). The cDNA was prepared from 0.5 µg of total RNA using a RevertAid First Strand Synthesis cDNA Kit (MBI Fermentas, Vilnius, Lithuania). The amplification of the ubiquitin C gene fragment was used to determine the quality of cDNA.
as §3, with “acquired. Duplicate samples were used for measurement and samples with a standard deviation of duplicates > 1.0 cycle threshold (Ct) were re-analyzed. The real time PCR procedure was maintained according to MIQE (Minimum information for publication of quantitative real-time PCR experiments) guidelines.” for “acquired.”

ABCB3 = ABCB3 mRNA expression (real-time PCR); assay type: cell-based, human; details: A2780/DOX, 10 µM, 48 h, without doxorubicin
Method: as §1, §2, §3

ABCB1 (P-gp) = experiment: ABCB1 mRNA expression (real-time PCR); assay type: cell-based, human; details: 10 µM, 48 h, without doxorubicin
Method: as §1, §4
as §3, with “acquired. Duplicate samples were used for measurement and samples with a standard deviation of duplicates > 1.0 cycle threshold (Ct) were re-analyzed. The real time PCR procedure was maintained according to MIQE (Minimum information for publication of quantitative real-time PCR experiments) guidelines.” for “acquired.”

Structure (SMILES): COc1cc(C2Oc3cc(-c4oc5cc(O)cc(O)c5c(=O)c4O)ccc3OC2CO)ccc1O (stereo not shown) [Dehydrosilybin AB, 2,3-dehydrosilybin]
- radical scavenging compared to silybin [1]: 25 fold

Structure (SMILES): COc1cc(C2Oc3cc([C@H]4Oc5cc(O)cc(O)c5C(=O)[C@@H]4O)ccc3OC2CO)ccc1O (stereo partly shown) [Silybin AB, silybin]
- ABCA7 Expression Difference (ABCA7): 2.704

Structure (SMILES): COc1cc([C@@H]2Oc3cc([C@H]4Oc5cc(O)cc(O)c5C(=O)[C@@H]4O)ccc3O[C@H]2CO)ccc1O [Silybin B, silybin B]
- downregulation of ABCC2 (MRP2) expression (ABCC2 (MRP2)): 66%
- ABCC2 Expression Difference (ABCC2 (MRP2); A2780/DOX): 0.341
- ABCC2 Treated vs. Untreated (ABCC2 (MRP2); A2780/DOX): DOWN
- ABCB3 Expression Difference (ABCB3): 0.365
- ABCB3 Treated vs. Untreated (ABCB3): DOWN
- downregulation of ABCB1 (P-gp) expression (ABCB1 (P-gp)): 79%
- ABCB1 Expression Difference (ABCB1 (P-gp); A2780/DOX): 0.208
- ABCB1 Treated vs. Untreated (ABCB1 (P-gp); A2780/DOX): DOWN
